Source: publication PMC9820592, “Novel Chiral Ru(II) Complexes as Potential c-myc G-quadruplex DNA Stabilizers Inducing DNA Damage to Suppress Triple-Negative Breast Cancer Progression” (International Journal of Molecular Sciences, 2022)
Where “and” joins values, the source holds several entries; their conditions need not be identical. Equal entries are not always repeated.

Legend:
MCF-7 cells = assay: MTT assay, MCF-7 cells; format: cell-based, human; conditions: 72 h, read-out: Inhibitory Effect (IC50/μM) MCF-7
Description: (§1) Liver cancer HepG2 cells, lung cancer A549 cells, breast cancer MCF-7 and MDA-MB-231 cells, human nasopharyngeal carcinoma CNE-1 cells, and human immortalized keratinocyte HaCaT cells were seeded in 96-well plates (5 × 10^3 cells per well) and cultured at 37 °C and 5% CO2 for 24 h. Cells were treated with different concentrations of the complexes (0, 1.5625, 3.125, 6.25, 12.5, 25, 50, and 100 µM) for 72 h. After adding 20 µL MTT (5 mg/mL) solution to each well, the cells were incubated for 4 h, and then 150 µL DMSO was added to each well. The optical density of each well was detected by a microplate reader at a wavelength of 570 nm. The cell survival rate (%) = A(experimental group)/A(control group) × 100%, and the IC50 value was analyzed and calculated based on the survival rate.

HepG2 cells = assay: MTT assay, HepG2 cells; format: cell-based, human; conditions: 72 h, read-out: Inhibitory Effect (IC50/μM) HepG2
Description: as §1

CNE-1 cells = assay: MTT assay, CNE-1 cells; format: cell-based, human; conditions: 72 h, read-out: Inhibitory Effect (IC50/μM) CNE-1
Description: as §1

HaCaT cells = assay: MTT assay, normal HaCaT keratinocytes; format: cell-based; conditions: 72 h, normal human keratinocytes, read-out: Inhibitory Effect (IC50/μM) HaCaT
Description: as §1

c-myc protein = c-myc protein expression in MDA-MB-231 cells; format: cell-based, human; conditions: 40 μΜ, 72 h
MDA-MB-231 cells [1] = assay: Wound-healing assay; format: cell-based, human
Description: MDA-MB-231 cells (1 × 10^5 cells/well) were inoculated in a 6-well cell culture plate marked on the back until a single layer of cells covered more than 90% of the bottom of the culture plate, and a 200 µL pipette was used to scratch the culture. Different concentrations of the complexes (0, 2.5, 5, and 10 µM) were applied for 72 h. Migrating cells in the same field of view were observed and recorded every 24 h, and the average cell migration rate was calculated in three fields for every group.

MDA-MB-231 cells [2] = assay: FITC-gelatine invasion assay; format: cell-based, human; conditions: 24 h
Description: An appropriate amount of FITC–gelatine glue was pipetted to cover the inner ring of the confocal cuvette, added to 0.5% glutaraldehyde for at least 30 min after solidification, and activated with 5 mg·mL^−1 sodium borohydride. Subsequently, 2 mL of cell suspension (5 × 10^4 cells) treated with different drug concentrations (0, 2.5, 5, and 10 µM) was added to each dish. The mixture was incubated at 37 °C for 24 h, and then the cells in each dish were fixed with 4% paraformaldehyde, incubated with phalloidin staining solution for 30 min and DAPI for 5 min, and imaged with a fluorescence microscope in the dark.

MDA-MB-231 cells [3] = assay: Immunofluorescence of paxillin and F-actin; format: cell-based, human; conditions: 24 h
Description: (§2) MDA-MB-231 cells were inoculated in a 6-well plate containing a cover glass. On the second day, the cells were treated with different concentrations of the complex (0, 5, and 10 μM) for 24 h. The cells were fixed with 4% paraformaldehyde for 20 min, and then blocked with 5% BSA for 0.5 h at room temperature. The 1:500 anti-γH2AX antibody was diluted with 5% FBS and incubated for 1 h. The cells were incubated with lgG (H + L) for 0.5 h and treated with DAPI for 5 min. The cover glass was then transferred to a specified microscope slide and photographed with laser confocal microscopy. The antibodies used in immunofluorescence to determine invasion and metastasis were anti-paxillin antibody (ab32115), Fluor 488-conjugated IgG (H + L) (Proteintech), and rhodamine phalloidin (Amanita phalloidin, cytoskeleton).

MDA-MB-231 cells [4] = assay: Flow cytometry, cell cycle distribution; format: cell-based, human; conditions: 72 h; for G0/G1: control 63.16%
Description: (§3) MDA-MB-231 cells were treated with different concentrations of the complexes (0, 10, 20, and 40 μM) for 72 h, then collected and stained with an Annexin V-FITC/PI Apoptosis Detection Kit I (BD, 556547). The MDA-MB-231 cells were fixed with 70% ethanol at 4 °C for 30 min, and then collected and stained with PI/RNase Staining Buffer (BD, 550825). The cells were analyzed by flow cytometry (Beckman, CytoFLEX). All experiments were repeated three times.

MDA-MB-231 cells [5] = assay: Flow cytometry, apoptosis (Annexin V-FITC/PI); format: cell-based, human; conditions: 72 h, control 2.77%
Description: as §3

γ-H2AX = γ-H2AX immunofluorescence; format: cell-based, human
Description: as §2

HUVECs = assay: Tube formation assay; format: cell-based, human; conditions: 10 μM, 6 h, VEGF 200 ng/mL
Description: Dissolving matrigel (4 °C, 24 h) was used to coat prechilled 96-well plates (50 μL/well, 37 °C, for at least 60 min). Then, the unsolid fluid was removed, and HUVECs at the density of 3 × 10^4 were cultured in DMEM with VEGF (200 ng/mL) containing the different concentrations of Δ−3 (0, 5, and 10 μM) for 6 h.

## Δ-[Ru(bpy)2(3-NBEDPPZ)](ClO4)2 [Δ−3]
MCF-7 cells
  IC50: 90.6 ± 6.34 µM
HepG2 cells
  IC50: 37.8 ± 0.6 µM
CNE-1 cells
  IC50: 40.9 ± 0.53 µM
HaCaT cells
  IC50: 70.9 µM and 71 µM
c-myc protein
  expression of the c-myc protein: effectively downregulated
MDA-MB-231 cells [1]; 10 μM, different treatment times
  migration rate (wound healing): less than half that of the control
MDA-MB-231 cells [1]; 2.5 and 5 μM
  migration of cells (wound healing): inhibited inconspicuously
MDA-MB-231 cells [2]; 10 μM
  degraded areas (black holes) on FITC-gelatine: did not result in a black hole
MDA-MB-231 cells [2]; 2.5 and 5 μM, control six degraded areas
  number of degraded areas on FITC-gelatine: markedly reduced
MDA-MB-231 cells [3]
  focal adhesions (paxillin) and stress fibers (F-actin): the amount of paxillin decreased
MDA-MB-231 cells [4]; 10 μM
  G2/M: 4.07%
  S: 30.96%
  SubG1: 5.40%
  G0/G1: 64.97%
MDA-MB-231 cells [4]; 20 μM
  G2/M: 3.13%
  S: 27.26%
  SubG1: 4.45%
  G0/G1: 69.61%
MDA-MB-231 cells [4]; 40 μM
  G2/M: 2.93%
  S: 29.70%
  SubG1: 14.97%
  G0/G1: 67.37%
MDA-MB-231 cells [5]; 10 μM
  proportion of apoptotic cells: 5.39%
MDA-MB-231 cells [5]; 20 μM
  proportion of apoptotic cells: 7.95%
MDA-MB-231 cells [5]; 40 μM
  proportion of apoptotic cells: 16.27%
γ-H2AX; 5 μM
  γ-H2AX production: Green fluorescence was observed
γ-H2AX; 10 μM
  γ-H2AX production: the DNA damage was serious
HUVECs
  tubular structures of HUVECs on Matrigel: sparse and incomplete
